Where two headings read alike, the source gives them in different places.
Columns and labels:
[1] = system: KMS-12-BM myeloma cell line; test: Pim cell assay: phospho-BAD (S112) and total BAD in KMS-12-BM cells; assay type: cell-based; conditions: 1 hour and 50 minutes incubation
Experimental: The KMS-12-BM myeloma cell line was used to determine the in vitro cellular inhibition of Pim kinases. Disruption of Pim signaling by Pim inhibitors was determined by measuring the levels of phospho-BAD (S112) and total BAD. […] The cells were then incubated overnight at 37° C., 5% CO2. […] In addition to the 10-point dosing curve of the test compound, DMSO alone was run as a control. This dilution in DMSO was then diluted again into cell growth medium. Aliquots (11.1 uL) of the compound diluted in growth medium were then transferred to the appropriate wells of the 96-well plates containing cells to yield a final DMSO concentration of 0.3%. The cell plates were then incubated with compound for 1 hour and 50 minutes at 37° C., 5% CO2. After the 1 hour and 50 min incubation, the cell plates were spun at 1000 RPM for 10 minutes and the compound-containing medium was removed. […] The cell plates containing lysis buffer were then immediately stored at −70° C. These prepared lysates were then assayed for phospho-(S112) and total-BAD according to the manufacturer's protocol (Meso Scale Diagnostics, Cat # K15103D-3). The plates were read on the MSD Sector Imager 6000, and results were calculated according to the assay protocol: ((% Phosphoprotein=((2×Phospho signal)/(Phospho signal+Total signal))×100)).

[2] = target: Pim-1 (Homo sapiens (Human), UniProt P11309); test: Pim enzyme assay (HTRF, phosphorylation of biotinylated-BAD (S112) peptide), Pim-1; assay type: biochemical
Source text: (§1) Full-length human cDNAs encoding Pim-1 (MGC ID 3913552) or Pim-2 (IMAGE ID 5092935) were purchased from Invitrogen, Carlsbad, Calif. These cDNAs were used as templates in PCR reactions to produce full-length DNA clones of the PIMs. Oligonucleotide PCR primers for Pim-1 were 5′-[…]-3′ and 5′-[…]-3′. Oligonucleotide PCR primers for Pim-2 were 5′-[…]-3′ and 5′-[…]-3′. PCR products were digested with BclI and EcoRI for Pim-1 and BamHI and EcoRI for Pim-2 and ligated into a modified baculovirus transfer vector (pFastBac 1) cleaved with BamHI and EcoRI. For bacterial expression, the same cleaved PCR products encoding Pim-1 or Pim-2 were ligated into a modified E. coli expression vector pET28(a) cleaved with BamHI and EcoRI. Amino-terminal hexahistidine tags followed by a thrombin cleavage site were previously added to the vectors using standard methods of molecular biology. Recombinant baculoviruses expressing Pim-1 or Pim-2 were made using standard methods (Fastbac manual, Invitrogen, Carlsbad, Calif.). Infection of Sf9 cells was done at an m.o.i. of greater than 5 for 24-48 h. Cells were harvested by centrifugation and frozen at −80 C. For E. coli expression, cells carrying pET28-His6-Th-Pim-1 or pET28-His6-Th-Pim-2 were picked from a single colony and grown o/n in LB media. The o/n culture was used to inoculate a 2 liter flask with 500 mL media. This was grown o/n and used to inoculate 15-20 liters of Terrific Broth in a New Brunswick Scientific fermentor. The E. coli were grown at 37° C. to and OD600>1.6. The temperature was dropped to 18° C. and o/n expression was induced with 0.5 mM IPTG. Cells were harvested by centrifugation and frozen at −80° C.
(§2) The frozen cell pellets were thawed by stirring in chilled lysis buffer (0.05 M HEPES, pH 8.0, 0.25 M NaCl, 0.01 M 2-mercaptoethanol, 10% (w/v) glycerol, 0.5% (v/v) protease inhibitor cocktail (Sigma P-8340) at a ratio of 1 L/200 g cells until homogeneous. The thawed suspension was applied to a microfluidizer at 10,000 PSI to disrupt the cells and the whole lysates were clarified by centrifugation at 50,000×g for 90 min, 4° C. Imidazole was added to the clarified lysate to a final concentration of 2.5 mM and the lysate was mixed with 10 mL of Talon resin (Clontech) and the slurry rocked gently overnight at 4° C. The slurry was centrifuged at 1,000×g for 5 min, the supernatant decanted, and the resin suspended in 40 mL of lysis wash buffer (lysis buffer at 0.75 M NaCl). This step was repeated 3× and the resin was transferred to a 2.5 cm glass column. Ten column volumes of wash buffer (0.05 M HEPES, pH 8.0, 0.1 M NaCl, 0.01 M 2-mercaptoethanol, 10% (w/v) glycerol) were applied to the resin followed by 10 column volumes of elution buffer (0.05 M HEPES, pH 8.0, 0.25 M NaCl, 0.01 M 2-mercaptoethanol, 10% (w/v) glycerol, 0.1 M imidazole). Fractions were analyzed by SDS-PAGE and those containing the protein of interest were pooled and concentrated. The concentrated protein was applied to an Amersham Superdex 75 (XK 26/60) column equilibrated in 0.025 M Tris-HCl, pH 7.5, 0.1 M NaCl, 0.01 M 2-mercaptoethanol, 10% (w/v) glycerol. […] Fractions containing the monomeric protein of interest were pooled, concentrated to ˜2 mg/mL, and stored at −80° C.
(§3) The phosphorylation of biotinylated-BAD (S112) peptide by full length recombinant Pim-1, Pim-2, or Pim-3 protein was detected with streptavidin:Allophycocyanin (APC) conjugate and a europium (Eu) labeled antibody directed against phosphorylated-BAD (S112). Excitation of Eu by a high energy laser light (337 nm) leads to a transfer of energy to the APC molecule, and results in an emission at 665 nm. The fluorescence is directly proportional to the amount of phosphorylated BAD peptide present in the reaction.

[3] = target: Pim-2 (Homo sapiens (Human), UniProt Q9P1W9); test: Pim enzyme assay (HTRF, phosphorylation of biotinylated-BAD (S112) peptide), Pim-2; assay type: biochemical
Source text: as §1, §2, §3

[4] = Homo sapiens, KMS-12-BM, read-out: KMS-12-BM IC50 IP
[5] = full length recombinant Pim-1, biotinylated-BAD (S112) peptide, HTRF, 96-well, read-out: Pim-1 IC50 IP
[6] = full length recombinant Pim-2, biotinylated-BAD (S112) peptide, HTRF, 96-well, read-out: Pim-2 IC50 IP
[7] = tris(2,2,2-trifluoroacetate), read-out: KMS-12-BM IC50 IP
[8] = bis(2,2,2-trifluoroacetate), read-out: KMS-12-BM IC50 IP
[9] = Homo sapiens, KMS-12-BM, read-out: KMS12_Cell_IC50
[10] = full length recombinant Pim-1, biotinylated-BAD (S112) peptide, HTRF, read-out: Pim_1_IC50

Chain of Pim-2 (Q9P1W9 whole entry): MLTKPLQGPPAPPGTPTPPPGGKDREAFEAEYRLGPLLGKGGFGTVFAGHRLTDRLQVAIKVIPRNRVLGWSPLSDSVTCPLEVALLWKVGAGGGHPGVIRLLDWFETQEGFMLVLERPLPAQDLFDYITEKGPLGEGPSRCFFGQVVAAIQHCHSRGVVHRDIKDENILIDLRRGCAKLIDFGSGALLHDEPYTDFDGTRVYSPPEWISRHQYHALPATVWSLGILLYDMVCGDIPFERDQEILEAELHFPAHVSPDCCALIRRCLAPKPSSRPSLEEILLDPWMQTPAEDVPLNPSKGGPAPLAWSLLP
Chain of Pim-1 (P11309 whole entry): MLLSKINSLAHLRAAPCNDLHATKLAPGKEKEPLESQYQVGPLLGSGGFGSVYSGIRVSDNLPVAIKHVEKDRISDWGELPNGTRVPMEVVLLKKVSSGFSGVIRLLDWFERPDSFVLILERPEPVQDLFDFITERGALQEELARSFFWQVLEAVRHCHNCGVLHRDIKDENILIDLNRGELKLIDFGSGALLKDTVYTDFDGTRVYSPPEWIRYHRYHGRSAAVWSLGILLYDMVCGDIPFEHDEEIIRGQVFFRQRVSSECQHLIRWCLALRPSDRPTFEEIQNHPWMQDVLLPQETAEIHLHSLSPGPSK

Row | IC50 [1, 4] [nM] | IC50 [2, 5] [nM] | IC50 [3, 6] [nM] | SMILES | IC50 [1, 7] [nM] | further results
1 |  |  |  | O[C@H]1CCN(c2ccncc2Nc2ncc3ccc(-c4c(F)cccc4F)nn23)C[C@@H]1O (mixture of isomers) [Example 25, (3S,4S)-1-(3-((2-(2,6-difluorophenyl)imidazo[1,5-b]pyridazin-7-yl)amino)-4-pyridinyl)-3,4-piperidinediol and (3R,4R)-1-(3-((2-(2,6-difluorophenyl)imidazo[1,5-b]pyridazin-7-yl)amino)-4-pyridinyl)-3,4-piperidinediol (1/1)] |  | IC50 ([1]; read-out: KMS12_Cell_IC50): 777 nM; IC50 ([2]; read-out: Pim_1_IC50): 2 nM; IC50 ([3]; read-out: Pim2_IC50): 8 nM
2 | 116 | 0.1 | 0.3 | N[C@H]1C[C@@H](C(F)(F)F)CN(c2ccncc2Nc2ncc3ccc(-c4c(F)cccc4F)nn23)C1 (racemic) [Example 60, rac-N-(4-((cis)-3-amino-5-(trifluoromethyl)piperidin-1-yl)pyridin-3-yl)-2-(2,6-difluorophenyl)imidazo[1,5-b]pyridazin-7-amine bis(2,2,2-trifluoroacetate)] |  | 
3 | 1630 | 0.4 | 1.4 | N[C@H]1C[C@H](C(F)(F)F)CN(c2ccncc2Nc2ncc3ccc(-c4c(F)cccc4F)nn23)C1 (racemic) [Example 61, rac-N-(4-((trans)-3-amino-5-(trifluoromethyl)piperidin-1-yl)pyridin-3-yl)-2-(2,6-difluorophenyl)imidazo[1,5-b]pyridazin-7-amine bis(2,2,2-trifluoroacetate)] |  | 
4 | 235 | 0.3 | 1.3 | C[C@@H]1C[C@H](N)CN(c2ccncc2Nc2ncc3ccc(-c4ccccn4)nn23)C1 (relative stereo) [Example 63, N-(4-((cis)-3-amino-5-methylpiperidin-1-yl)pyridin-3-yl)-2-(pyridin-2-yl)imidazo[1,5-b]pyridazin-7-amine] |  | 
5 | 667 | 2.7 | 8.8 | O[C@@H]1CCN(c2ccncc2Nc2ncc3ccc(-c4c(F)cccc4F)nn23)C[C@H]1O (single isomer, unassigned) [Example 35, 1-(3-((2-(2,6-difluorophenyl)imidazo[1,5-b]pyridazin-7-yl)amino)-4-pyridinyl)-3,4-trans-piperidinediol] |  | 
6 |  | < 0.1 | 0.1 | C[C@@H]1C[C@H](N)CN(c2ccncc2Nc2ncc3ccc(-c4ccccc4F)nn23)C1 (single isomer, unassigned) [Example 46, N-(4-((cis)-3-amino-5-methylpiperidin-1-yl)pyridin-3-yl)-2-(2-fluorophenyl)imidazo[1,5-b]pyridazin-7-amine tris(2,2,2-trifluoroacetate)] | 52.1 | 
7 |  | 7.7 | 54.2 | C[C@@H]1C[C@H](N)CN(c2ccncc2Nc2ncc3ccc(-c4ccccc4F)nn23)C1 (single isomer, unassigned) [Example 47, N-(4-((cis)-3-amino-5-methylpiperidin-1-yl)pyridin-3-yl)-2-(2-fluorophenyl)imidazo[1,5-b]pyridazin-7-amine tris(2,2,2-trifluoroacetate)] | 10200 | 
8 |  |  |  | C[C@H]1CCN(c2ccncc2Nc2ncc3ccc(-c4c(F)cccc4F)nn23)C[C@H]1N (single isomer, unassigned) [Example 98, N-(4-((cis)-3-amino-4-methylpiperidin-1-yl)pyridin-3-yl)-2-(2,6-difluorophenyl)imidazo[1,5-b]pyridazin-7-amine bis(2,2,2-trifluoroacetate)] |  | IC50 [1, 8]: 12100 nM; IC50 ([2]; read-out: Pim-1 IC50 IP): 2.8 nM; IC50 ([3]; read-out: Pim-2 IC50 IP): 15.7 nM
9 |  |  |  | C[C@@H]1CCN(c2ccncc2Nc2ncc3ccc(-c4c(F)cccc4F)nn23)C[C@H]1N (single isomer, unassigned) [Example 100, N-(4-((trans)-3-amino-4-methylpiperidin-1-yl)pyridin-3-yl)-2-(2,6-difluorophenyl)imidazo[1,5-b]pyridazin-7-amine tris(2,2,2-trifluoroacetate)] | 77.5 | IC50 ([2]; read-out: Pim-1 IC50 IP): < 0.1 nM; IC50 ([3]; read-out: Pim-2 IC50 IP): 0.2 nM
10 |  |  |  | N[C@H]1CCCN(c2ccncc2Nc2ncc3ccc(-c4c(F)cccc4F)nn23)C1 [Example 1, N-(4-((3S)-3-amino-1-piperidinyl)-3-pyridinyl)-2-(2,6-difluorophenyl)imidazo[1,5-b]pyridazin-7-amine tris(2,2,2-trifluoroacetate)] |  | IC50 [1, 9]: 428 nM; IC50 [2, 10]: 0.08 nM; IC50 ([3]; read-out: Pim2_IC50): 0.5 nM
11 |  |  |  | Fc1cccc(F)c1-c1ccc2cnc(Nc3cnccc3N3CCNCC3)n2n1 [Example 2, 2-(2,6-difluorophenyl)-N-(4-(1-piperazinyl)-3-pyridinyl)imidazo[1,5-b]pyridazin-7-amine] |  | IC50 [1, 9]: > 31000 nM; IC50 [2, 10]: 14 nM; IC50 ([3]; full length recombinant Pim-2, biotinylated-BAD (S112) peptide, HTRF, read-out: Pim2_IC50): 126 nM

Row | SMILES | IC50 [1, 4] [nM] | IC50 [2, 5] [nM] | IC50 [3, 6] [nM] | IC50 [1, 7] [nM] | further results
12 | C[C@H]1CCN(c2ccncc2Nc2ncc3ccc(-c4c(F)cccc4F)nn23)C[C@H]1N (single isomer, unassigned) [Example 99, N-(4-((cis)-3-amino-4-methylpiperidin-1-yl)pyridin-3-yl)-2-(2,6-difluorophenyl)imidazo[1,5-b]pyridazin-7-amine bis(2,2,2-trifluoroacetate)] |  | 0.3 | 1.6 |  | IC50 [1, 8]: 2700 nM
13 | C[C@@H]1CCN(c2ccncc2Nc2ncc3ccc(-c4c(F)cccc4F)nn23)C[C@H]1N (single isomer, unassigned) [Example 101, N-(4-((trans)-3-amino-4-methylpiperidin-1-yl)pyridin-3-yl)-2-(2,6-difluorophenyl)imidazo[1,5-b]pyridazin-7-amine tris(2,2,2-trifluoroacetate)] |  | 7.6 | 32.4 | 6930 | 
